In US10780094B2, “Use of carbonic anhydrase inhibitors for treatment of neurological and psychiatric disorders” (New York University, priority 2016, dated 2020):

System: mitochondria isolated from ECs (D3 cells)
Test: Mitochondrial H2O2 production (Amplex Red) after Aβ challenge
Format: cell-based, human
Details: ATZ at lower concentrations than MTZ
Description: Cells were plated on 6-wells plates and treated with the peptides and/or drugs for the experimental times. Plates were centrifuged for 10 min at 1.000 RPM and washed twice with PBS 1×. After that, 500 μL of homogenization buffer (75 mM sucrose, 225 mM mannitol, 5 mM Tris-HCl pH=7.4, 1 mM PMSF and protease inhibitor cocktail) was added. Cells were scraped in this buffer, collected in glass tubes and grinded exactly 80 times with a pellet pestle, keeping everything always on ice. Cells were then centrifuged at 2.800 RPM for 5 min at 4° C. The supernatant was collected and centrifuged again at 2.800 RPM for 5 min at 4° C. The supernatant was again collected and centrifuged at 10.500 RPM for another 5 min at 4° C. After this, the supernatant was discarded and the pellet was re-suspended in 100 μL of homogenization buffer. The samples were centrifuged again at 10.500 RPM for 10 min at 4° C., the supernatant was discarded and the pellets (mitochondrial fractions) were re-suspended on 50 μL of homogenization buffer. […] After that, mitochondrial fractions containing equal amounts of mitochondrial proteins were placed on 96-wells microplate absorbance microtiter (ThermoFisher, Waltham, Mass., US) and the AmplexRed assay was ran, following the instructions provided by the manufacturer. Absorbance was measured by using a FlexStation (Molecular Devices, Sunnyvalem Calif., US).

For `CC(=O)Nc1nnc(S(N)(=O)=O)s1` [ATZ, acetazolamide], the “inhibition of H2O2 production, compared with MTZ” value was “more dramatic effect on the inhibition of H2O2 production”.
